Reference: patent publication US20260109700A1, “NITROGEN-CONTAINING HETEROCYCLIC COMPOUNDS AND PHARMACEUTICALLY ACCEPTABLE SALTS THEREOF, PREPARATION METHOD THEREFOR, AND THE USE THEREOF” (NEUSHEN THERAPEUTICS (SHANGHAI) CO., LTD, priority 2022, published 2026)
Each block holds one compound with its values, some of them ahead of it.

Legend:
[1] = tested on: patients with schizophrenia; conditions: phase Ib; cited from earlier work
human M4 receptor = target: T1, human M4 receptor (Homo sapiens, UniProt P08173); assay: PAM activity on M4 receptor, FLIPR CALCIUM 6 assay in M4-Gα15-CHO cells with acetylcholine; type: cell-based; conditions: PAM mode with acetylcholine agonist, FLIPR calcium signal
T1 construct: expressed in transfected cells
T1 sequence (P08173 1-479): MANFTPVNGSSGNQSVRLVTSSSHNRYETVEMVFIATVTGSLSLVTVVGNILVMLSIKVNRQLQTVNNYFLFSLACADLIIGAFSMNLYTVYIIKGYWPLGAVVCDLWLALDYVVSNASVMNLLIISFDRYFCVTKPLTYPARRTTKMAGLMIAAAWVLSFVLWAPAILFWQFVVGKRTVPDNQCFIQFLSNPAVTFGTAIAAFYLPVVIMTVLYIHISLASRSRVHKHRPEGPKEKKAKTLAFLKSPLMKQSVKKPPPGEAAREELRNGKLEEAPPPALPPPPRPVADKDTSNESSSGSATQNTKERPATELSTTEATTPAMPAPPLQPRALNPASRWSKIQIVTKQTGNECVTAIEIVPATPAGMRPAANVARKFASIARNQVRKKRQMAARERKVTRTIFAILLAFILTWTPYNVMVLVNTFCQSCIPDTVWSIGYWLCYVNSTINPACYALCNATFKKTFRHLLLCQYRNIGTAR
Experimental: The activity of compounds on M4 receptor was determined by FLIPR CALCIUM 6 ASSAY KIT using a stable transfected cell line expressing human M4 receptor (M4-Gα15-CHO).
1. This study uses a CHO cell line stably expressing M4-Gα15 receptor, which expresses human CHRM4 and GNA15 genes, respectively.
2. Cell treatment: M4-Gα15-CHO cells were cultured in F-12 medium containing 10% fetal bovine serum, 0.4 mg/mL hygromycin B, and 0.8 mg/mL geneticin G418, with a culture temperature of 37° C. and a CO2 concentration of 5%. The old media was removed and the cells were washed once with phosphate buffered saline. 1 mL of trypsin solution was then added, and the mixture was incubated at 37° C. for approximately 2 minutes. After the cells were detached from the dish, approximately 5 mL of complete media pre-warmed at 37° C. was added. The cell suspension was gently pipetted to separate the aggregated cells. The cell suspension was transferred to a sterile centrifuge tube and centrifuged at 1000 rpm for 5 minutes.
1. Cell plating: M4-Gα15-CHO cells were digested and collected, then resuspended and counted, and seeded into a 384-well cell plate at a density of 1.2×10^4 cells/25 μL/well. The cell plate was then incubated in a 5% CO2 incubator at 37° C. for approximately 20 hours.
2. Preparation of loading buffer according to the instructions of FLIPR CALCIUM 6 ASSAY KIT after 24 hours: Component A was freeze-thawed to room temperature, and diluted with assay buffer and probenecid solution to obtain a loading buffer, which was kept at room temperature for later use.
3. The medium was removed from the cell plate, and 35 µL of loading buffer was quickly added to each well. After centrifugation, the cell plate was incubated at 37° C. in the dark for 120 minutes.
4. A working solution of the compound to be tested was prepared, 5 μL of which was transferred to the corresponding cell wells, and incubated at 37° C. in the dark for 30 minutes.
5. 30 nM acetylcholine agonist working solution was prepared and transferred to a 384-well loading plate at 20 μL/well.
6. The cell plate, the loading plate, and the pipette tip were placed at the corresponding positions of the FLIPR instrument. 10 μL of the agonist diluted in step 5 was added to the experimental wells using FLIPR, and data were collected at a wavelength of 515 nm to 575 nm.
7. The signal value was plotted against compound concentration. Curve fitting and EC50 calculation were performed by nonlinear regression method using GraphPad Prism software.
1. 0.5 mol/L 2-(4-(2-hydroxyethyl)piperazine)ethanesulfonic acid buffer was mixed with Hanks' balanced salt solution (pH 7.4) at a volume ratio of 1:24 to prepare an assay buffer. 10 mL of assay buffer was added to a vial of CALCIUM 6 ASSAY KIT Component A in the form of lyophilized powder, and aliquoted and stored at −20° C.
2. Probenecid powder was dissolved in 1 mol/L sodium hydroxide solution to a final concentration of […]. The assay buffer, freeze-thawed Component A, and probenecid solution were mixed at a volume ratio of 44:5:1 to prepare a loading buffer.

[2] = Pharmacokinetic properties in vivo in mice (iv and oral); conditions: mouse, plasma, CD-1 mice, oral 2.0 mg/kg; for bioavailability / clearance / Vd / Cmax: iv 1.0 mg/kg; for bioavailability: read-out: Bioavailability F; for clearance: read-out: Clearance CL; for Vd: read-out: Volume of distribution at steady state Vdss; for AUC(0-t): read-out: Area under the curve AUC0-last, po; for half-life: read-out: Half-life T1/2, po (converted); for Cmax: read-out: Peak concentration Cmax
Experimental: The compounds obtained in the examples of the present disclosure were evaluated for their pharmacokinetic properties in vivo in CD-1 mice.
The compounds were tested for their pharmacokinetic characteristics in rodents after intravenous injection and oral administration following standard protocols. In the experiment, the candidate compound was prepared into a clear solution or suspension with a specified vehicle, and administered to three mice via single-dose intravenous injection and oral administration, respectively. The vehicle for both intravenous injection and oral administration was 5% dimethyl sulfoxide+95% (10% polyethylene glycol (15)-hydroxystearate in water). Whole blood samples within 24 hours were collected into a commercial EDTA2K anticoagulant tube, followed by centrifugation to obtain the upper plasma sample, and acetonitrile solution containing internal standard was added to precipitate proteins. After centrifugation, the supernatant was mixed with an equal volume of water, and after another centrifugation, the supernatant was taken for injection. Plasma concentration was quantitatively analyzed using LCMS/MS analysis method, and pharmacokinetic parameters were calculated.

mice = conditions: genetic mouse model of schizophrenia; cited from earlier work
patients = conditions: cited from earlier work

Compound: Cc1cc(C)c2c(n1)CN(C(=O)CC1CN(c3ccnc(C(F)(F)F)c3)C1)C2 [CVL-231]
PANSS total score [1]: significantly reduce

Compound: Cc1nnc(C)c2c1CN(C(=O)CC1CN(c3ccnc(C(F)(F)F)c3)C1)C2 [Example 24]
EC50 (human M4 receptor): 387 nM

Compound: Cc1nnc(N2CCC2)c2c1CN(C(=O)CC1CN(c3ccnc(OCC(F)(F)F)c3)C1)C2 [Example 47]
EC50 (human M4 receptor): 250 nM

Compound: Cc1nnc(C)c2c1CN(C(=O)CC1CN(c3ccnc(OCC(F)(F)F)c3)C1)C2 [Example 67]
EC50 (human M4 receptor): 390 nM
bioavailability [2]: 82.7%
clearance [2]: 3.32 mL/min/kg
Vd [2]: 1.53 L/kg
AUC(0-t) [2]: 8040 ng·h/mL
half-life [2]: 4.78 h
Cmax [2]: 827 ng/mL

Compound: Cc1nnc(C)c2c1CN(C(=O)CC1CN(c3ccnc(O[C@H](C)C(F)(F)F)c3)C1)C2 [Example 89]
EC50 (human M4 receptor): 290 nM
bioavailability [2]: 80.6%
clearance [2]: 7.65 mL/min/kg
Vd [2]: 3.72 L/kg
AUC(0-t) [2]: 3470 ng·h/mL
half-life [2]: 4.65 h
Cmax [2]: 345 ng/mL

Compound: Cc1nnc(C)c2c1CN(C(=O)CC1CN(c3ccnc(O[C@@H](C)C(F)(F)F)c3)C1)C2 [Example 116]
EC50 (human M4 receptor): 580 nM

Compound: Cc1c(Cc2ccc(-n3cccn3)cc2)cc2c(c1F)CN([C@H]1COCC[C@@H]1O)C2=O [TAK-071]
deficits in memory cognition, social competence, and sensory-motor gating (mice): significantly ameliorates

Compound: CCCCCCOc1nsnc1C1=CCCN(C)C1 [Xanomeline]
toxic and side effects (patients; peripheral nervous system and digestive tract): serious toxic and side effects
cognitive function of patients (patients; phase II clinical trial, Alzheimer's disease): improvement in the cognitive function

Continued by falling EC50 (human M4 receptor), values first:

EC50 (human M4 receptor): 1780 nM
Compound: Cc1nsc(N2CC(CC(=O)N3Cc4c(C)nnc(N5CCC5)c4C3)C2)n1 [Example 50]

EC50 (human M4 receptor): 1370 nM
Compound: Cc1nnc(N2CCC2)c2c1CN(C(=O)CC1CN(c3ccnc(C(F)(F)F)c3)C1C)C2 (stereo not drawn) [Example 51]

EC50 (human M4 receptor): 1130 nM
Compound: Cc1nnc(C2CC2)c2c1CN(C(=O)CC1CN(c3ccnc(OCC(F)(F)F)c3)C1)C2 [Example 98]

EC50 (human M4 receptor): 900 nM
Compound: CCc1nnc(C)c2c1CN(C(=O)CC1CN(c3ccnc(OCC(F)(F)F)c3)C1)C2 [Example 110]

EC50 (human M4 receptor): 480 nM
Compound: Cc1nnc(C)c2c1CN(C(=O)CC1CN(c3ccnc(SC(F)(F)F)c3)C1)C2 [Example 68]

EC50 (human M4 receptor): 350 nM
bioavailability [2]: 86.6%
clearance [2]: 17.1 mL/min/kg
Vd [2]: 2.3 L/kg
AUC(0-t) [2]: 1690 ng·h/mL
half-life [2]: 1.13 h
Cmax [2]: 614 ng/mL
Compound: Cc1nnc(N2CCC2)c2c1CN(C(=O)CC1CN(c3ccnc(C(F)(F)F)c3)C1)C2 [Example 12]
